Assay results reported in patent US9750757B2, “Methods of prevention or treatment for pathologic thrombosis or inflammation” (THOMAS JEFFERSON UNIVERSITY, priority 2013, dated 2017).
“Also recorded” adds a separate entry of the source.

Key:
[1] = tested on: platelets, PAR4-AP-induced aggregation; assay: PAR4-AP-induced aggregation of washed platelets (light transmission aggregometry); type: cell-based; settings: washed human platelets incubated 30 min with inhibitor; sub-threshold concentrations of PAR4-AP
Method: (§1) The indicated concentrations of LDN-193,188 were incubated for 30 min with washed platelets and stimulated with sub-threshold concentrations of activating PAR peptides. […] Biol. Chem. 2004, 279, 18434-18439). […] For assessment of calcium mobilization, platelets were re-calcified to a final concentration of 1 mM followed by pre-incubation with Fluo-4 AM for 10 min. The platelets were then stimulated with PAR4-AP and calcium mobilization was measured using the Accuri C6 flow cytometer (Yeung et al., Mol. Pharmacol. 2012, 81, 420-430). In both Houston and Philadelphia, technical variation was minimized by use of the same highly-trained technicians, same lots of reagents and same instruments throughout the duration of the study. […] This score correlated strongly with standard assessment of maximal percent aggregation, but inclusion of slope (which was a minor contributor to the overall score, and highly related to maximal aggregation) allowed distinction among platelets with the same maximal aggregation value. This score was highly reproducible in 10 subjects studied weekly for three or four weeks.

PC-TP [2] = molecular target: T1, PC-TP (Homo sapiens, UniProt Q9UKL6); settings: Wagel et al. 2008; cited from earlier work
T1 sequence (Q9UKL6 1-214): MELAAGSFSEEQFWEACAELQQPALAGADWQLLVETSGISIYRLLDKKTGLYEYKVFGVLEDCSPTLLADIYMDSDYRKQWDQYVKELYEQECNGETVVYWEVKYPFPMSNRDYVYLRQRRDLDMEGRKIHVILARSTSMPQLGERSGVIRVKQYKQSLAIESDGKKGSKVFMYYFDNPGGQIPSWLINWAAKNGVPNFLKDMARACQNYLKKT

PC-TP [3] = molecular target: T1, PC-TP; settings: Shishova et al. 2011; cited from earlier work
[4] = tested on: platelets, PAR1-AP-induced aggregation; assay: PAR1-AP-induced aggregation of washed platelets (light transmission aggregometry); type: cell-based; settings: washed human platelets incubated 30 min with inhibitor; sub-threshold concentrations of PAR1-AP
Method: as §1

[5] = tested on: platelet rich plasma (PRP); assay: Light transmission aggregometry in platelet rich plasma, agonist-induced maximal aggregation (PRAX1); type: cell-based, human; settings: for Mean percent maximal aggregation, Black: PRP of black subjects; for Mean percent maximal aggregation, White: PRP of white subjects
Method: (1) Houston studies. A complete blood count and mean platelet volume were obtained using an ABX Micros 60 CS (Horiba ABX, Irvine, Calif., USA). Using light transmission aggregometry, maximal percent aggregation and slope of aggregation at 10 min in platelet rich plasma (PRP) treated with: 0.5 mg/ml arachidonic acid, 4 μM ADP, 1 μM and 2 μM PAR1 activating peptide (PAR1-AP), and 50 μM and 75 μM PAR4 activating peptide (PAR4-AP) were measured. (2) Philadelphia studies. Light transmission aggregometry of washed platelets was used to assess thrombin-induced platelet aggregation without or with a 2 min pre-incubation with 20 μM BMS-200261 (BMS, PAR1-specific antagonist) (Quinton et al., J. Biol. Chem. 2004, 279, 18434-18439). A difference in the efficacy of the PAR1 inhibitor was observed between the pilot and replicate studies, but validation of inhibitor activity was confirmed for both studies (FIG. 1B inset and FIG. 7E). For assessment of calcium mobilization, platelets were re-calcified to a final concentration of 1 mM followed by pre-incubation with Fluo-4 AM for 10 min. The platelets were then stimulated with PAR4-AP and calcium mobilization was measured using the Accuri C6 flow cytometer (Yeung et al., Mol. Pharmacol. 2012, 81, 420-430). In both Houston and Philadelphia, technical variation was minimized by use of the same highly-trained technicians, same lots of reagents and same instruments throughout the duration of the study. Because multiple concentrations were used to activate PAR1 and PAR4 to induce platelet aggregation, an integrated score was developed that combined these values to determine a single index that represented each individual's agonist response. This score correlated strongly with standard assessment of maximal percent aggregation, but inclusion of slope (which was a minor contributor to the overall score, and highly related to maximal aggregation) allowed distinction among platelets with the same maximal aggregation value. This score was highly reproducible in 10 subjects studied weekly for three or four weeks.

SMILES: Cc1cc(C)nc(NS(=O)(=O)c2ccc(NC(=O)NC(=O)c3ccc(Cl)cc3Cl)cc2)n1 [LDN-193,188, 2,4-dichloro-N-(4-(N-(4,6-dimethylpyrimidin-2-yl)sulfamoyl)phenylcarbamoyl)-benzamide]
- Effect on PAR4-AP-induced platelet aggregation [1]: prevented aggregation; also recorded: blocked; also recorded: does block
- Phosphatidylcholine transfer activity of PC-TP (PC-TP [2]): inhibitor
- Displacement of phosphatidylcholine from PC-TP (PC-TP [3]): displaces phosphatidylcholine from the lipid binding pocket
- Thermal stability of PC-TP (PC-TP [3]): increases the thermal stability
- Effect on PAR1-AP-induced platelet aggregation [4]: does not block

SMILES: Nc1ncnc2c1ncn2[C@@H]1O[C@H](COP(=O)(O)OP(=O)(O)O)[C@@H](O)[C@H]1O [ADP]
- Fold difference (Black/White) ([5]; 4 μM ADP): 0.91 fold
- Mean percent maximal aggregation, Black ([5]; 4 μM ADP): 40.89%
- Mean percent maximal aggregation, White ([5]; 4 μM ADP): 45.04%

SMILES: CCCCC/C=C\C/C=C\C/C=C\C/C=C\CCCC(=O)O [AA, arachidonic acid]
- Fold difference (Black/White) ([5]; 500 μg/ml AA): 0.99 fold
- Mean percent maximal aggregation, Black ([5]; 500 μg/ml AA): 86.57%
- Mean percent maximal aggregation, White ([5]; 500 μg/ml AA): 87.21%
